# Species: Rattus norvegicus
# Test: Open TG-GATES - Regimen: Daily Repeat
# Assay type: toxicity, organism-based, Sprague-Dawley
# Parameters: regimen Daily Repeat, gender Male, age 6 weeks
# Conditions: in vivo, po, route gavage; for Bas / Eos / Fbg / Hb / Ht / MCV / Mono / Neu / Plat / RBC / Ret / WBC / MCHC: tissue Blood; for KIDNEY_L / KIDNEY_R / KIDNEY_TOTAL: tissue Kidney; for LIVER: tissue Liver; for ALP / AST / BUN / CRE / DBIL / GLC / IP / K / LDH / Na / PL / RALB / TBIL / TC / TG / TP / gamma-GTP: tissue Plasma
# [1] = 60 mg/kg, 72 h, dose level Middle, time 3 day
# [2] = 60 mg/kg, […], dose level Middle, time 7 day
# [3] = 60 mg/kg, […], dose level Middle, time 14 day
# [4] = 60 mg/kg, […], dose level Middle, time 28 day
# [5] = 200 mg/kg, 72 h, dose level High, time 3 day
# [6] = 200 mg/kg, […], dose level High, time 7 day
# [7] = 200 mg/kg, […], dose level High, time 14 day
# [8] = 200 mg/kg, […], dose level High, time 28 day
structure (smiles),measurement,setting,value
CO[C@H]1/C=C/O[C@@]2(C)Oc3c(C)c(O)c4c(O)c(c(/C=N/N5CCN(C)CC5)c(O)c4c3C2=O)NC(=O)/C(C)=C\C=C\[C@H](C)[C@H](O)[C@@H](C)[C@@H](O)[C@@H](C)[C@H](OC(C)=O)[C@@H]1C [RIFAMPIN],TERMINAL_BW,[1],238.2 g
same,Bas,[1],0%
same,Eos,[1],1%
same,Fbg,[1],236.6 mg/dL
same,Hb,[1],13.8 g/dL
same,Ht,[1],41.4%
same,MCV,[1],62.9 fL
same,Mono,[1],5.8%
same,Neu,[1],7.4%
same,Plat,[1],118.3 x10_4/uL
same,RBC,[1],658.2 x10_4/ul
same,Ret,[1],5.7%
same,KIDNEY_L,[1],1 g
same,KIDNEY_R,[1],1 g
same,KIDNEY_TOTAL,[1],2 g
same,LIVER,[1],11.3 g
same,ALP,[1],841.6 IU/L
same,AST,[1],60.4 IU/L
same,BUN,[1],19 mg/dL
same,CRE,[1],0.6 mg/dL
same,DBIL,[1],0.02 mg/dL
same,GLC,[1],189 mg/dL
same,IP,[1],9 mg/dL
same,K,[1],4.7 meq/L
same,LDH,[1],98.8 IU/L
same,Na,[1],139.2 meq/L
same,PL,[1],135.4 mg/dL
same,RALB,[1],3.6 g/dL
same,TBIL,[1],0.4 mg/dL
same,TC,[1],83 mg/dL
same,TG,[1],71 mg/dL
same,TP,[1],5.7 g/dL
same,gamma-GTP,[1],1 IU/L
same,TERMINAL_BW,[2],259.9 g
same,TERMINAL_BW,[3],298.5 g
same,TERMINAL_BW,[4],379.8 g
same,Bas,[2],0%
same,Eos,[2],0.6%
same,Fbg,[2],239.6 mg/dL
same,Hb,[2],14.1 g/dL
same,Ht,[2],42.6%
same,MCV,[2],62.5 fL
same,Mono,[2],5.2%
same,Neu,[2],7%
same,Plat,[2],107 x10_4/uL
same,RBC,[2],683.2 x10_4/ul
same,Ret,[2],5.7%
same,WBC,[2],130.9 x10_2/uL
same,Bas,[3],0%
same,Eos,[3],0.6%
same,Fbg,[3],226.6 mg/dL
same,Hb,[3],15.2 g/dL
same,Ht,[3],44.9%
same,MCHC,[3],33.8%
same,MCV,[3],60.6 fL
same,Mono,[3],3.2%
same,Neu,[3],3.4%
same,Plat,[3],115.2 x10_4/uL
same,RBC,[3],742.6 x10_4/ul
same,Ret,[3],3.5%
same,WBC,[3],161.2 x10_2/uL
same,Bas,[4],0%
same,Eos,[4],1%
same,Fbg,[4],226.4 mg/dL
same,Hb,[4],15.2 g/dL
same,Ht,[4],44.9%
same,MCHC,[4],33.8%
same,MCV,[4],55.8 fL
same,Mono,[4],3.4%
same,Neu,[4],9.6%
same,Plat,[4],117.9 x10_4/uL
same,RBC,[4],803.6 x10_4/ul
same,Ret,[4],2.3%
same,WBC,[4],138.4 x10_2/uL
same,KIDNEY_L,[2],1.1 g
same,KIDNEY_R,[2],1.1 g
same,KIDNEY_TOTAL,[2],2.2 g
same,KIDNEY_L,[3],1.1 g
same,KIDNEY_R,[3],1.2 g
same,KIDNEY_TOTAL,[3],2.3 g
same,KIDNEY_L,[4],1.3 g
same,KIDNEY_R,[4],1.3 g
same,KIDNEY_TOTAL,[4],2.7 g
same,LIVER,[2],11.6 g
same,LIVER,[3],12.9 g
same,LIVER,[4],14.8 g
same,ALP,[2],813.8 IU/L
same,AST,[2],64.6 IU/L
same,BUN,[2],16.8 mg/dL
same,CRE,[2],0.5 mg/dL
same,DBIL,[2],0.032 mg/dL
same,GLC,[2],193.6 mg/dL
same,IP,[2],8 mg/dL
same,K,[2],5 meq/L
same,LDH,[2],89.4 IU/L
same,Na,[2],139.2 meq/L
same,PL,[2],145.4 mg/dL
same,RALB,[2],3.9 g/dL
same,TBIL,[2],0.3 mg/dL
same,TC,[2],80.4 mg/dL
same,TG,[2],90.6 mg/dL
same,TP,[2],6 g/dL
same,gamma-GTP,[2],2.4 IU/L
same,ALP,[3],779.4 IU/L
same,AST,[3],58.6 IU/L
same,BUN,[3],18.2 mg/dL
same,CRE,[3],0.5 mg/dL
same,DBIL,[3],0.044 mg/dL
same,GLC,[3],193.4 mg/dL
same,IP,[3],7.7 mg/dL
same,K,[3],5.2 meq/L
same,LDH,[3],70.8 IU/L
same,Na,[3],139.8 meq/L
same,PL,[3],160.8 mg/dL
same,RALB,[3],3.9 g/dL
same,TBIL,[3],0.3 mg/dL
same,TC,[3],83.6 mg/dL
same,TG,[3],116.6 mg/dL
same,TP,[3],6.1 g/dL
same,gamma-GTP,[3],1.2 IU/L
same,ALP,[4],610.4 IU/L
same,AST,[4],55.6 IU/L
same,BUN,[4],18.4 mg/dL
same,CRE,[4],0.6 mg/dL
same,DBIL,[4],0.038 mg/dL
same,GLC,[4],185 mg/dL
same,IP,[4],7 mg/dL
same,K,[4],4.4 meq/L
same,LDH,[4],76.2 IU/L
same,Na,[4],140.6 meq/L
same,PL,[4],159.6 mg/dL
same,RALB,[4],4 g/dL
same,TBIL,[4],0.3 mg/dL
same,TC,[4],81.6 mg/dL
same,TG,[4],132 mg/dL
same,TP,[4],6.2 g/dL
same,gamma-GTP,[4],1.2 IU/L
same,TERMINAL_BW,[5],223.8 g
same,Bas,[5],0%
same,Eos,[5],1%
same,Fbg,[5],229 mg/dL
same,Hb,[5],14.3 g/dL
same,Ht,[5],43.3%
same,MCHC,[5],33.1%
same,MCV,[5],63.4 fL
same,Mono,[5],5%
same,Neu,[5],2.6%
same,Plat,[5],122.5 x10_4/uL
same,RBC,[5],684 x10_4/ul
same,Ret,[5],3.9%
same,WBC,[5],123.3 x10_2/uL
same,KIDNEY_L,[5],1 g
same,KIDNEY_R,[5],1 g
same,KIDNEY_TOTAL,[5],2.1 g
same,LIVER,[5],10.2 g
same,ALP,[5],864.8 IU/L
same,AST,[5],61.8 IU/L
same,BUN,[5],15.8 mg/dL
same,CRE,[5],0.5 mg/dL
same,DBIL,[5],0.1 mg/dL
same,GLC,[5],189 mg/dL
same,IP,[5],8.8 mg/dL
same,K,[5],5.1 meq/L
same,LDH,[5],204.6 IU/L
same,Na,[5],138.8 meq/L
same,PL,[5],108 mg/dL
same,RALB,[5],3.7 g/dL
same,TBIL,[5],0.6 mg/dL
same,TC,[5],67 mg/dL
same,TG,[5],48.2 mg/dL
same,TP,[5],6 g/dL
same,gamma-GTP,[5],1.2 IU/L
same,TERMINAL_BW,[6],249 g
same,TERMINAL_BW,[7],298.6 g
same,TERMINAL_BW,[8],356.4 g
same,Bas,[6],0%
same,Eos,[6],0.4%
same,Fbg,[6],226.8 mg/dL
same,Hb,[6],13.8 g/dL
same,Ht,[6],41.1%
same,MCHC,[6],33.5%
same,MCV,[6],62.9 fL
same,Mono,[6],6.4%
same,Neu,[6],7.4%
same,Plat,[6],106.5 x10_4/uL
same,RBC,[6],653.6 x10_4/ul
same,Ret,[6],4.7%
same,WBC,[6],165.2 x10_2/uL
same,Bas,[7],0%
same,Eos,[7],0.2%
same,Fbg,[7],222.4 mg/dL
same,Hb,[7],13.9 g/dL
same,Ht,[7],41.2%
same,MCHC,[7],33.7%
same,MCV,[7],58.7 fL
same,Mono,[7],3.4%
same,Neu,[7],4.8%
same,Plat,[7],114.3 x10_4/uL
same,RBC,[7],702.8 x10_4/ul
same,Ret,[7],4.2%
same,WBC,[7],185.6 x10_2/uL
same,Bas,[8],0%
same,Eos,[8],0.6%
same,Fbg,[8],214.4 mg/dL
same,Hb,[8],14 g/dL
same,Ht,[8],42.2%
same,MCHC,[8],33.1%
same,MCV,[8],53.7 fL
same,Mono,[8],5.4%
same,Neu,[8],8.8%
same,Plat,[8],111.8 x10_4/uL
same,RBC,[8],786.6 x10_4/ul
same,Ret,[8],2.4%
same,WBC,[8],116.3 x10_2/uL
same,KIDNEY_L,[6],1 g
same,KIDNEY_R,[6],1 g
same,KIDNEY_TOTAL,[6],2 g
same,KIDNEY_L,[7],1.2 g
same,KIDNEY_R,[7],1.2 g
same,KIDNEY_TOTAL,[7],2.4 g
same,KIDNEY_L,[8],1.3 g
same,KIDNEY_R,[8],1.3 g
same,KIDNEY_TOTAL,[8],2.6 g
same,LIVER,[6],12.2 g
same,LIVER,[7],13.9 g
same,LIVER,[8],16.8 g
same,ALP,[6],976.6 IU/L
same,AST,[6],62.2 IU/L
same,BUN,[6],17.4 mg/dL
same,CRE,[6],0.5 mg/dL
same,DBIL,[6],0.2 mg/dL
same,GLC,[6],181.2 mg/dL
same,IP,[6],9 mg/dL
same,K,[6],4.9 meq/L
same,LDH,[6],158.4 IU/L
same,Na,[6],139.8 meq/L
same,PL,[6],139.6 mg/dL
same,RALB,[6],3.9 g/dL
same,TBIL,[6],0.5 mg/dL
same,TC,[6],74.8 mg/dL
same,TG,[6],75.8 mg/dL
same,TP,[6],6.2 g/dL
same,gamma-GTP,[6],1.8 IU/L
same,ALP,[7],781 IU/L
same,AST,[7],60.2 IU/L
same,CRE,[7],0.5 mg/dL
same,DBIL,[7],0.2 mg/dL
same,GLC,[7],182.2 mg/dL
same,IP,[7],8.3 mg/dL
same,K,[7],4.9 meq/L
same,LDH,[7],163.8 IU/L
same,Na,[7],140.8 meq/L
same,PL,[7],144.8 mg/dL
same,RALB,[7],4.1 g/dL
same,TBIL,[7],0.4 mg/dL
same,TC,[7],82.2 mg/dL
same,TG,[7],73 mg/dL
same,TP,[7],6.1 g/dL
same,gamma-GTP,[7],1.8 IU/L
same,ALP,[8],771 IU/L
same,AST,[8],54.8 IU/L
same,BUN,[8],19.2 mg/dL
same,CRE,[8],0.5 mg/dL
same,DBIL,[8],0.3 mg/dL
same,GLC,[8],185.4 mg/dL
same,K,[8],4.4 meq/L
same,LDH,[8],160.6 IU/L
same,Na,[8],141.2 meq/L
same,PL,[8],134 mg/dL
same,RALB,[8],4.1 g/dL
same,TBIL,[8],0.6 mg/dL
same,TC,[8],76 mg/dL
same,TG,[8],75.4 mg/dL
same,TP,[8],6.3 g/dL
same,gamma-GTP,[8],0.8 IU/L
